Values of other authors in PubChem BioAssay AID1259409 (Chemical Carcinogenesis Research Information System (CCRIS), 2018).

Test system: rodent chemically induced tumor inhibition, incidence and multiplicity
Test: CCRIS tumor inhibitor studies
Settings: Species: RAT

O=C(O)CCSCCC(=O)O
tumour outcome (control, treated, inhibition, significance) (Carcinogen: 7,12-DIMETHYLBENZ[A]ANTHRACENE, 57-97-6, Dose [Inhibitor]: 1.0% IN POWDERED DIET BEGINNING 1 WK POST CARCINOGEN DOSE FOR 51 WK (STUDY DURATION: 52 WK), Route [Inhibitor]: ORAL, Strain/Sex: SPRAGUE-DAWLEY/FEMALE, Target Tissue: Type of Lesion: EAR DUCT: BENIGN TUMOR, Dose [Carcinogen]: 2.5 MG/100 G BW IN 0.5 ML SESAME OIL ONCE, Promoter: NONE USED): 7/19 (37%), 2/19 (11%), 72%, not calculated
tumour outcome (control, treated, inhibition, significance) (Carcinogen: 7,12-DIMETHYLBENZ[A]ANTHRACENE, 57-97-6, Dose [Inhibitor]: 1.0% IN POWDERED DIET BEGINNING 1 WK POST CARCINOGEN DOSE FOR 51 WK (STUDY DURATION: 52 WK), Route [Inhibitor]: ORAL, Strain/Sex: SPRAGUE-DAWLEY/FEMALE, Target Tissue: Type of Lesion: MAMMARY GLAND: FIBROADENOMA, Dose [Carcinogen]: 2.5 MG/100 G BW IN 0.5 ML SESAME OIL ONCE, Promoter: NONE USED): 15/19 (79%), 9/19 (47%), 40%, not calculated

COc1c(N2C[C@@H]3CCCN[C@@H]3C2)c(F)cc2c(=O)c(C(=O)O)cn(C3CC3)c12
outcome (Carcinogen: N-BUTYL-N-(4-HYDROXYBUTYL)NITROSAMINE, 3817-11-6, Dose [Inhibitor]: 0, 500 MG/KG BW/D FOR 24 WK BEGINNING 14 WK POST CARCINOGEN FIRST DOSE (STUDY DURATION: 38 WK), Route [Inhibitor]: ORAL, Strain/Sex: WISTAR/MALE, FEMALE, Target Tissue: Type of Lesion: LIVER: TUMOR, Dose [Carcinogen]: 0.02% IN DRINKING WATER FOR FIRST 9 WK): 0%, 1/18 (6%), -100%, not significant
tumour outcome (control, treated, inhibition, significance) (Carcinogen: N-BUTYL-N-(4-HYDROXYBUTYL)NITROSAMINE, 3817-11-6, Dose [Inhibitor]: 0, 500 MG/KG BW/D FOR 24 WK BEGINNING 14 WK POST CARCINOGEN FIRST DOSE (STUDY DURATION: 38 WK), Route [Inhibitor]: ORAL, Strain/Sex: WISTAR/MALE, FEMALE, Target Tissue: Type of Lesion: URINARY BLADDER: TUMOR, Dose [Carcinogen]: 0.02% IN DRINKING WATER FOR FIRST 9 WK): 13/18 (72%), 10/18 (56%), 22%, not significant
tumour outcome (control, treated, inhibition, significance) (Carcinogen: N-ETHYL-N-NITROSOUREA, 759-73-9, Dose [Inhibitor]: 0, 500 MG/KG BW/D FOR 24 WK BEGINNING 14 WK POST CARCINOGEN FIRST DOSE (STUDY DURATION: 38 WK), Route [Inhibitor]: ORAL, Strain/Sex: WISTAR/MALE, FEMALE, Target Tissue: Type of Lesion: AUDITORY SEBACEOUS GLAND: TUMOR, Dose [Carcinogen]: 20 MG/KG BW 1/WK FOR FIRST 10 WK): 9/26 (35%), 4/26 (15%), 57%, not significant
tumour outcome (control, treated, inhibition, significance) (Carcinogen: N-ETHYL-N-NITROSOUREA, 759-73-9, Dose [Inhibitor]: 0, 500 MG/KG BW/D FOR 24 WK BEGINNING 14 WK POST CARCINOGEN FIRST DOSE (STUDY DURATION: 38 WK), Route [Inhibitor]: ORAL, Strain/Sex: WISTAR/MALE, FEMALE, Target Tissue: Type of Lesion: HEART: TUMOR, Dose [Carcinogen]: 20 MG/KG BW 1/WK FOR FIRST 10 WK): 1/26 (4%), 0%, 100%, not significant
tumour outcome (control, treated, inhibition, significance) (Carcinogen: N-ETHYL-N-NITROSOUREA, 759-73-9, Dose [Inhibitor]: 0, 500 MG/KG BW/D FOR 24 WK BEGINNING 14 WK POST CARCINOGEN FIRST DOSE (STUDY DURATION: 38 WK), Route [Inhibitor]: ORAL, Strain/Sex: WISTAR/MALE, FEMALE, Target Tissue: Type of Lesion: HEMATOLYMPHORETICULAR: TUMOR, Dose [Carcinogen]: 20 MG/KG BW 1/WK FOR FIRST 10 WK): 15/26 (58%), 13/26 (50%), 14%, not significant
tumour outcome (control, treated, inhibition, significance) (Carcinogen: N-ETHYL-N-NITROSOUREA, 759-73-9, Dose [Inhibitor]: 0, 500 MG/KG BW/D FOR 24 WK BEGINNING 14 WK POST CARCINOGEN FIRST DOSE (STUDY DURATION: 38 WK), Route [Inhibitor]: ORAL, Strain/Sex: WISTAR/MALE, FEMALE, Target Tissue: Type of Lesion: LARGE INTESTINE: TUMOR, Dose [Carcinogen]: 20 MG/KG BW 1/WK FOR FIRST 10 WK): 9/26 (35%), 7/26 (27%), 23%, not significant
outcome (Carcinogen: N-ETHYL-N-NITROSOUREA, 759-73-9, Dose [Inhibitor]: 0, 500 MG/KG BW/D FOR 24 WK BEGINNING 14 WK POST CARCINOGEN FIRST DOSE (STUDY DURATION: 38 WK), Route [Inhibitor]: ORAL, Strain/Sex: WISTAR/MALE, FEMALE, Target Tissue: Type of Lesion: LIVER: TUMOR, Dose [Carcinogen]: 20 MG/KG BW 1/WK FOR FIRST 10 WK): 0%, 0%, 0%, not significant
tumour outcome (control, treated, inhibition, significance) (Carcinogen: N-ETHYL-N-NITROSOUREA, 759-73-9, Dose [Inhibitor]: 0, 500 MG/KG BW/D FOR 24 WK BEGINNING 14 WK POST CARCINOGEN FIRST DOSE (STUDY DURATION: 38 WK), Route [Inhibitor]: ORAL, Strain/Sex: WISTAR/MALE, FEMALE, Target Tissue: Type of Lesion: MAMMARY GLAND: TUMOR, Dose [Carcinogen]: 20 MG/KG BW 1/WK FOR FIRST 10 WK): 5/26 (19%), 2/26 (8%), 58%, not significant
outcome (Carcinogen: N-ETHYL-N-NITROSOUREA, 759-73-9, Dose [Inhibitor]: 0, 500 MG/KG BW/D FOR 24 WK BEGINNING 14 WK POST CARCINOGEN FIRST DOSE (STUDY DURATION: 38 WK), Route [Inhibitor]: ORAL, Strain/Sex: WISTAR/MALE, FEMALE, Target Tissue: Type of Lesion: MESENTERY: TUMOR, Dose [Carcinogen]: 20 MG/KG BW 1/WK FOR FIRST 10 WK): 0%, 1/26 (4%), -100%, not significant
outcome (Carcinogen: N-ETHYL-N-NITROSOUREA, 759-73-9, Dose [Inhibitor]: 0, 500 MG/KG BW/D FOR 24 WK BEGINNING 14 WK POST CARCINOGEN FIRST DOSE (STUDY DURATION: 38 WK), Route [Inhibitor]: ORAL, Strain/Sex: WISTAR/MALE, FEMALE, Target Tissue: Type of Lesion: NASAL CAVITY: TUMOR, Dose [Carcinogen]: 20 MG/KG BW 1/WK FOR FIRST 10 WK): 0%, 0%, 0%, not significant
outcome (Carcinogen: N-ETHYL-N-NITROSOUREA, 759-73-9, Dose [Inhibitor]: 0, 500 MG/KG BW/D FOR 24 WK BEGINNING 14 WK POST CARCINOGEN FIRST DOSE (STUDY DURATION: 38 WK), Route [Inhibitor]: ORAL, Strain/Sex: WISTAR/MALE, FEMALE, Target Tissue: Type of Lesion: PANCREAS: TUMOR, Dose [Carcinogen]: 20 MG/KG BW 1/WK FOR FIRST 10 WK): 0%, 0%, 0%, not significant
tumour outcome (control, treated, inhibition, significance) (Carcinogen: N-ETHYL-N-NITROSOUREA, 759-73-9, Dose [Inhibitor]: 0, 500 MG/KG BW/D FOR 24 WK BEGINNING 14 WK POST CARCINOGEN FIRST DOSE (STUDY DURATION: 38 WK), Route [Inhibitor]: ORAL, Strain/Sex: WISTAR/MALE, FEMALE, Target Tissue: Type of Lesion: SEMINAL VESICLES: TUMOR, Dose [Carcinogen]: 20 MG/KG BW 1/WK FOR FIRST 10 WK): 1/26 (4%), 0%, 100%, not significant
tumour outcome (control, treated, inhibition, significance) (Carcinogen: N-ETHYL-N-NITROSOUREA, 759-73-9, Dose [Inhibitor]: 0, 500 MG/KG BW/D FOR 24 WK BEGINNING 14 WK POST CARCINOGEN FIRST DOSE (STUDY DURATION: 38 WK), Route [Inhibitor]: ORAL, Strain/Sex: WISTAR/MALE, FEMALE, Target Tissue: Type of Lesion: SKIN: TUMOR, Dose [Carcinogen]: 20 MG/KG BW 1/WK FOR FIRST 10 WK): 9/26 (35%), 10/26 (39%), -11%, not significant
outcome (Carcinogen: N-ETHYL-N-NITROSOUREA, 759-73-9, Dose [Inhibitor]: 0, 500 MG/KG BW/D FOR 24 WK BEGINNING 14 WK POST CARCINOGEN FIRST DOSE (STUDY DURATION: 38 WK), Route [Inhibitor]: ORAL, Strain/Sex: WISTAR/MALE, FEMALE, Target Tissue: Type of Lesion: SUBCUTIS: TUMOR, Dose [Carcinogen]: 20 MG/KG BW 1/WK FOR FIRST 10 WK): 0%, 0%, 0%, not significant

C[N+](C)(C)CC(=O)O
tumour outcome (control, treated, inhibition, significance) (Carcinogen: ETHIONINE, 13073-35-3, Dose [Inhibitor]: 5.2 MMOL/100 G DIET DAILY FOR 8 MO ADMINISTERED SIMULTANEOUSLY WITH CARCINOGEN FOLLOWED BY 4 MO ON BASAL DIET (STUDY DUR, Route [Inhibitor]: ORAL, Strain/Sex: WISTAR/MALE, Target Tissue: Type of Lesion: LIVER: CARCINOMA, Dose [Carcinogen]: 0.25% OF DIET DAILY FOR 8 MO, Promoter: NONE USED): 8/8 (100%), 1/10 (10%), 90%, not calculated

CC(=O)[C@H]1C[C@@H]2C[C@H]1[C@@H](N=C=S)C2
tumour outcome (control, treated, inhibition, significance) (Carcinogen: 7,12-DIMETHYLBENZ[A]ANTHRACENE, 57-97-6, Dose [Inhibitor]: 0, 100 UMOL/D IN 0.5 ML EMULPHOR EL-620 FOR 5 CONSECUTIVE DAYS BEGINNING AT 47 D OF AGE (STUDY DURATION: 155 D), Route [Inhibitor]: GAVAGE, Strain/Sex: SPRAGUE-DAWLEY/FEMALE, Target Tissue: Type of Lesion: MAMMARY GLAND: TUMOR, Dose [Carcinogen]: 8 MG IN 1 ML SESAME OIL ONCE AT 50 D OF AGE, Promoter: NONE USED): 17/25 (68%), 9/19 (47%), 31%, not significant

CC(O)C(=O)O (centres undefined)
outcome (Carcinogen: 1,2-DIMETHYLHYDRAZINE, 540-73-8, Dose [Inhibitor]: 0, 3.2 G/L IN DRINKING WATER FOR DURATION OF STUDY (STUDY DURATION: 34 WK), Route [Inhibitor]: ORAL, Strain/Sex: SPRAGUE-DAWLEY/MALE, FEMALE, Target Tissue: Type of Lesion: COLON: TUMOR, Dose [Carcinogen]: 21 MG/KG 1/WK FOR 18 WK, Promoter: NONE USED): 28/29 (97%), 18/28 (64%), not calculated
